These are literature values, as cited in patent US20130109707A1, “FLUOROURACIL DERIVATIVES” (Concert Pharmaceuticals ,Inc., priority 2010, published 2013).

The conditions of the series: patients treated with carmofur or with 5-fluorouracil; reported by Mixutani, Brain Nerve 2008.

In the case of `O=c1[nH]cc(F)c(=O)[nH]1` [5-fluorouracil], the cases of leukoencephalopathy was 0.026%. Regarding `CCCCCCNC(=O)n1cc(F)c(=O)[nH]c1=O` [carmofur, 5-fluoro-N-hexyl-2,4-dioxo-pyrimidine-1-carboxamide], the cases of leukoencephalopathy is 0.026%.
